Laboratory results from patent US9789194B2, “Graft copolymer polyelectrolyte complexes for drug delivery” (priority 2007, dated 2017).
Peptide text beside a SMILES is read from it.

What was measured:
[1] = KSL-W release profiles by dialysis; assay type: physicochemical; settings: free peptide, within the first 6 h of dialysis
Protocol: Each membrane cartridge was placed into 40 mL of water at 37° C. with gentle rocking (VWR brand incubating rocker, 50 Hz/15°). […] The amount of KSL-W remaining in each cartridge was evaluated at each time point using HPLC.

[2] = system: Staphylococcus aureus UAMS-1; assay type: cell-based
Protocol: The minimum inhibitory concentrations (MIC) KSL-W and its nanocomplexes were measured using the Clinical Laboratory Standards Institute (CLSI) broth microdilution method. Briefly, two-fold serial dilutions of free or complexed KSL-W solutions were prepared in THB medium at a volume of 200 µL/well in flat-bottom 96-well tissue culture plates (BD Biosciences). Hundred microliter of Staphylococcus aureus UAMS-1 (10^6 CFU/mL) was then added to each well. Plates were incubated overnight at 37° C. and then assessed by turbidity (absorbance at 600 nm). The concentration at which no turbidity was observed was considered the MIC. Each assay was reproduced in triplicate.

[3] = KSL-W binding efficiency by ultrafiltration; assay type: physicochemical; settings: free peptide, 10 kDa MWCO ultrafiltration
Protocol: Efficiency of binding for each polymer-drug complex was determined using ultrafiltration. Ultrafiltration cartridges with 10 k MWCO (Amicon Microcon Ultrafiltration Filters) were used according to manufacturer's instructions. […] The KSL-W content of filtrate and retentate were determined using HPLC as described above.

[4] = in vitro; settings: human, plasma, half-life of the peptide, 50% human plasma
Protocol: Aqueous solutions of the peptide:polymer complexes with various peptide:[…], were combined 1:1 v/v with human plasma sodium heparin anticoagulated, Biological Specialty Corporation) and placed in a 37° C. incubator. Fifty microliter aliquots of this mixture were injected at 1 h intervals onto a Prosphere HP C18-300 column, 250×4.6 mm ((Grace) mounted on a Waters HPLC system. The injection was loaded onto the column and equilibrated using a 90%/10%/0.1% water/acetonitrile/trifluoroacetic acid mobile phase and then eluted using a continuous gradient up to 70% acetonitrile. Integration of the KSL-W absorbance peak at 280 nm was used to determine peptide concentration in each sample. Every sample was run in parallel with a free-drug control at the same concentration.

Compound	release through 8-10 kDa dialysis membrane [1]	MIC (S. aureus UAMS-1) ([2]; UAMS-1) [µg/mL]	MIC ratio (complexed/free) ([2]; free peptide, charge ratio NA)	efficiency of passing through the membrane [3]	half-life ([4]; initial KSL-W concentration between 33 and 72 μg/mL) [h]	half-life ([4]; initial concentration between 13:2 and 330) [h]	MIC ([2]; same S. aureus strain and conditions) [µg/mL]
CC(C)[C@H](NC(=O)[C@H](Cc1c[nH]c2ccccc12)NC(=O)[C@H](Cc1ccccc1)NC(=O)[C@@H](NC(=O)[C@@H](NC(=O)[C@H](CCCCN)NC(=O)[C@@H](N)CCCCN)C(C)C)C(C)C)C(=O)N[C@@H](CCCCN)C(=O)N[C@@H](Cc1ccccc1)C(=O)N[C@@H](CCCCN)C(N)=O [KSL-W] (H-KKVVFWVKFK-NH2; N-terminus and C-terminus assumed)	over 95%	62 to 153	1	over 95%	4	1	
gentamicin							< 3100
